Test results reported in publication PMC4691848 (Nature, 2012).
pIC50: −log10 of the molar value.

Experiments:
[1] = tested on: panel of 60 unrelated proteins, including histone deacetylases; assay: off-target panel
[2] = tested on: panel of demethylases of the JMJ family; assay: JMJ selectivity panel; details: other than JMJD3 and UTX
[3] = tested on: 100 protein kinases; assay: kinase competition-binding assay; details: 30 μM
[4] = intracellular compound quantification in macrophage lysates; format: in vitro ADME, human
[5] = molecular target: Flag-tagged UTX from transiently transfected HEK-293 cells (Homo sapiens, UniProt O15550); assay: chemoproteomics affinity capture with immobilized GSK-J3, western blotting; format: binding; details: 100 μM free compound, HEK-293 lysate
Flag-tagged UTX from transiently transfected HEK-293 cells, sequence (O15550 whole entry): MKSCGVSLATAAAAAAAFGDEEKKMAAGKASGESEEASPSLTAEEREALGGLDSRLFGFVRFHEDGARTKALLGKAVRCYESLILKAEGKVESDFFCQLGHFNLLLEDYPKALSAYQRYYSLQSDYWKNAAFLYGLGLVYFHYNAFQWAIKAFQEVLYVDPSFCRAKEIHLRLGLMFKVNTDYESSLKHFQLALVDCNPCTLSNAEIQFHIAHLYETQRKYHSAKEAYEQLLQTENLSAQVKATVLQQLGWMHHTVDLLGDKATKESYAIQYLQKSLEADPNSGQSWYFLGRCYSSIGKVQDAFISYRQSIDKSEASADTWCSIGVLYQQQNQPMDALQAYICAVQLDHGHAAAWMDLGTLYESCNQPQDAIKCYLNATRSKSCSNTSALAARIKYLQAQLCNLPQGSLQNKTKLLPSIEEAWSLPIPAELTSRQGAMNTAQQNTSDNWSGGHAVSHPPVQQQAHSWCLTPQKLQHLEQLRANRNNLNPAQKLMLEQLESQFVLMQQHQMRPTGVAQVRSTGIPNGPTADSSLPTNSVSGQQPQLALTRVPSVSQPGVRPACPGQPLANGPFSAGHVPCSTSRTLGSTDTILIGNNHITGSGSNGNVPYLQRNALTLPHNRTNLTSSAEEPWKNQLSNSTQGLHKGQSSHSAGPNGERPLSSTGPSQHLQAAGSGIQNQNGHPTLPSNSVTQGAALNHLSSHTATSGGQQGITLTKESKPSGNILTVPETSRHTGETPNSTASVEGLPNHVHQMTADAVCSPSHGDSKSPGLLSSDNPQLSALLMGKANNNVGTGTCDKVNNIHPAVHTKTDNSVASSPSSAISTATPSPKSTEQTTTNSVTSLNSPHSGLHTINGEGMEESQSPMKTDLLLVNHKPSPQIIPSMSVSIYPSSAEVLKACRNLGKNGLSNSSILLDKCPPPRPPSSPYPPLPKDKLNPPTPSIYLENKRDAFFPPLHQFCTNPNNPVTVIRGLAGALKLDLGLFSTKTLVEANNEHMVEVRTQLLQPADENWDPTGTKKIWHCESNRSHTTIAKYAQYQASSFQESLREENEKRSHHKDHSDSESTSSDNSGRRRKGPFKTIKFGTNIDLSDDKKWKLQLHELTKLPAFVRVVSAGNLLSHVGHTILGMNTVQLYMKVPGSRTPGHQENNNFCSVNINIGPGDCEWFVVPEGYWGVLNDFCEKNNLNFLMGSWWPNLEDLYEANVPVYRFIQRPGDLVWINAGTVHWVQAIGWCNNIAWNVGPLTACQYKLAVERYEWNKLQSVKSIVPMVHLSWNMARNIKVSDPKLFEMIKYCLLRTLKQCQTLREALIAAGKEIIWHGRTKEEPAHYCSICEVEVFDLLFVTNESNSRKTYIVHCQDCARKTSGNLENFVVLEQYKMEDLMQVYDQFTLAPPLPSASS

[6] = tested on: macrophages derived from patients with rheumatoid arthritis; assay: TNF-α production by macrophages derived from patients with rheumatoid arthritis; format: cell-based, human
[7] = TNF-α production by LPS-activated macrophages; format: cell-based, human
[8] = ChIP analysis at the TNFA locus in LPS-stimulated macrophages; format: cell-based, human
[9] = cytokine expression by PCR array in LPS-activated macrophages; format: cell-based, human; details: 30 μM, LPS 2 h, n = 4 donors
[10] = tested on: Flag-JMJD3-transfected HeLa cells; assay: nuclear H3K27me3 immunostaining; format: cell-based

Compound	off-target activity against a panel of 60 unrelated proteins [1]	activity against a panel of demethylases of the JMJ family [2]	inhibition of 100 protein kinases [3]	cellular permeability [4]	competition of capture of Flag-tagged UTX by immobilized GSK-J3 [5]	production of TNF-α by macrophages from patients with rheumatoid arthritis [6]	hydrolysis by macrophage esterases [4]	levels of LPS-induced JMJD3 or of LPS-independent UTX and EZH2 [7]	TNF-α production after siRNA knockdown of either JMJD3 or UTX alone ([7]; 30 μM, LPS 1 h)	cellular toxicity ([7]; conditions of the TNF-α assay)	pIC50 ([7]; read-out: IC50 for TNF-α blockade, LPS, 6 h, n = 5 donors)	H3K27 methylation upstream of the TNFA TSS [8]	LPS-induced loss of H3K27me3 associated with the TNFA TSS (ChIP) ([8]; 30 μM, LPS 1 h, n = 8 donors)	recruitment of RNA polymerase II to the TNFA TSS (ChIP) ([8]; 30 μM, LPS 1 h, n = 8 donors)	LPS-driven cytokines with significantly reduced expression (PCR array) [9]	nuclear H3K27me3 staining in Flag-JMJD3-transfected HeLa cells ([10]; 25 μM)	total nuclear H3K27me3 levels in untransfected cells ([10]; untransfected cells)	effect on TNF-α protein production ([7]; LPS, 6 h)
O=C(O)CCNc1cc(N2CCc3ccccc3CC2)nc(-c2ccccn2)n1 [GSK-J1]	negligible off-target activity	inactive	did not significantly inhibit	restricts cellular permeability	competitively inhibited	–	–	–	–	–	–	–	–	–	–	–	–	–
CCOC(=O)CCNc1cc(N2CCc3ccccc3CC2)nc(-c2ccccn2)n1 [GSK-J4]	–	–	–	–	–	blocked the production of TNF-α	rapidly hydrolysed	neither GSK-J4 nor GSK-J5 directly affected	still able to inhibit TNF-α production	No interference from cellular toxicity was observed	5.05	Neither GSK-J4 nor GSK-J5 had an effect	prevented the LPS-induced loss of H3K27me3	blocked the recruitment of RNA polymerase II	16 of 34	preserved nuclear H3K27me3 staining	increased total nuclear H3K27me3 levels	–
CCOC(=O)CCNc1cc(N2CCc3ccccc3CC2)nc(-c2cccnc2)n1 [GSK-J5]	–	–	–	–	–	–	rapidly hydrolysed	neither GSK-J4 nor GSK-J5 directly affected	–	–	–	Neither GSK-J4 nor GSK-J5 had an effect	–	–	–	–	–	no effect
